What all share (assay type): cell-based
The target in one test is T1, mutant CFTR (Homo sapiens, UniProt P13569, DEL508-508).
T1 construct: expressed in transfected cells
The experiment in a line: Fluorescence (HS-YFP) assay for CFTR activity, corrector assay. The settings on record: CFBE41o- and FRT cells with stable expression of mutant CFTR, 24 h compound treatment. The method in brief:
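Corrector activity: 24 h compound treatment of HS-YFP/mutant-CFTR CFBE41o- or FRT cells, followed by 30 min forskolin 20 μM + genistein 50 μM at 37° C. Iodide influx (100 mM final) was tracked as fluorescence quenching, with dF/dt extrapolated by exponential fitting; EC50 values derived.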

For test [1], the target named is T2, F508del-CFTR (Homo sapiens, UniProt P13569, DEL508-508). The experiment in a line: Short-circuit current recordings on human bronchial epithelial cells (F508del/F508del). The following applies: HBE cells from CF patients (F508del/F508del), 24 hrs treatment; table 3. The arrangement: Human bronchial epithelial (HBE) cells obtained from CF patients (F508del/F508del genotype); endogenous in cells; host or cells: primary human bronchial epithelial cells from CF patients, F508del/F508del. Here is the method: Short-Circuit Current Recordings on Human Bronchial Epithelial Cells
T2 sequence (P13569 with tags, fused parts or gaps DEL508-508): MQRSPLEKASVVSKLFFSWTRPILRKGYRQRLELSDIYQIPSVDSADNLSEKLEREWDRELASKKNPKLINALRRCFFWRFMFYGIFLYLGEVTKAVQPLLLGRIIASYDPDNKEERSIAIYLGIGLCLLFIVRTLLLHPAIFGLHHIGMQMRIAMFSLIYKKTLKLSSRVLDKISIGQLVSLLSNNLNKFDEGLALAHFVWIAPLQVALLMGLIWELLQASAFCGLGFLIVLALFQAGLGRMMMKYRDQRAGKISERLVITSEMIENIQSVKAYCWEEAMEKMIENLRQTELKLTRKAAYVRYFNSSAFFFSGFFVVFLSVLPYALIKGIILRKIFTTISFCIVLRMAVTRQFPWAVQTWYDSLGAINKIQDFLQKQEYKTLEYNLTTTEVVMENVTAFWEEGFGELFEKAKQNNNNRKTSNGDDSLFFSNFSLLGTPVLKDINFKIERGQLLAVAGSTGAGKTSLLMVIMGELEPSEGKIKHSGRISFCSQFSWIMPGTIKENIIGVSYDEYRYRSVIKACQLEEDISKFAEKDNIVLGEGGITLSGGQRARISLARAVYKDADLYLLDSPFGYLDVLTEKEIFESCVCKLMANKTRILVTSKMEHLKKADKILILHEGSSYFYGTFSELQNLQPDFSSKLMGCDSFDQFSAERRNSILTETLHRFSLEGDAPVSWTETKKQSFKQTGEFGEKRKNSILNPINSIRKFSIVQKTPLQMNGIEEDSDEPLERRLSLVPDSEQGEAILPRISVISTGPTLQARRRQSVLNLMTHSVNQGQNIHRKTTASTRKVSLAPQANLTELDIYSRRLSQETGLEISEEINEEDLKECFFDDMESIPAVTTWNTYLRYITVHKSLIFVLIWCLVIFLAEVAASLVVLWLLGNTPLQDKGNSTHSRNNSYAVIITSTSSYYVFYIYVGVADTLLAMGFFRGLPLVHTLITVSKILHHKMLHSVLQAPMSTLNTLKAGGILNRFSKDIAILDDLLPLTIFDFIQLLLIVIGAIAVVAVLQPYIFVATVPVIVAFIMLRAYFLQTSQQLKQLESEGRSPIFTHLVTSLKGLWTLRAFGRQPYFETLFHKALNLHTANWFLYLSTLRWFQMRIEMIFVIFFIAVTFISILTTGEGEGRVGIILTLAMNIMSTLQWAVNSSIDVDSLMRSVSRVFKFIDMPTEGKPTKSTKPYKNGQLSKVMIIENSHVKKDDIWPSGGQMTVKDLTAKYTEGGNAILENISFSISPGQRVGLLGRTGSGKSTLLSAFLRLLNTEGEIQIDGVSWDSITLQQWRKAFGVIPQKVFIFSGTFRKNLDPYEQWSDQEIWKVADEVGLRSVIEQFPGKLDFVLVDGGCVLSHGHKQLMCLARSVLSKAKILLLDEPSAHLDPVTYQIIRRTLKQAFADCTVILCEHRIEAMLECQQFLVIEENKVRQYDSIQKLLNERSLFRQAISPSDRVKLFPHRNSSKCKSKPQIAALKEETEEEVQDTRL
Human bronchial epithelial (HBE) cells obtained from CF patients (F508del/F508del genotype) were plated on Snapwell inserts (Code 3801, Corning Life Sciences) at a density of 500,000 cells per insert. Cells were cultured for two weeks in a differentiating medium whose compositions has been previously described (Scudieri et al., J Physiol 590:6141-6155, 2012). For the first week, the medium was kept on both apical and basolateral sides of inserts (submerged condition). For the second week, the apical medium was removed (air-liquid condition, ALC). To test the activity of correctors, cells were treated for 24 hrs with compounds dissolved in the basolateral medium. After treatment, Snapwell inserts carrying differentiated bronchial epithelia were mounted in a vertical chamber resembling an Ussing system with internal fluid circulation. Both apical and basolateral hemichambers were filled with 5 mL of a Krebs bicarbonate solution containing (in mM): 126 NaCl, 0.38 KH2PO4, 2.13 K2HPO4, 1 MgSO4, 1 CaCl2), 24 NaHCO3, and 10 glucose. Both sides were continuously bubbled with a gas mixture containing 5% CO2-95% air and the temperature of the solution was kept at 37° C. The transepithelial voltage was short-circuited with a voltage-clamp (DVC-1000, World Precision Instruments) connected to the apical and basolateral chambers via Ag/AgCl electrodes and agar bridges (1 M KCl in 1% agar). The offset between voltage electrodes and the fluid resistance were canceled before experiments. The short-circuit current was recorded with a PowerLab 4/25 (ADInstruments) analogical to digital converter connected to a Macintosh computer. […] The difference between the current measured with CPT-cAMP plus potentiator and the current remaining after CFTRinh-172 treatment (ΔICFTR) was taken as the parameter reflecting F508del-CFTR expression in the apical membrane.
Activities of selected compounds on HBE cells (expressed as ΔICFTR) are illustrated in table 3 wherein +: ΔICFTR<2.0 μA; ++: 2.0 μA<ΔICFTR<3.0 μA; +++: ΔICFTR>3.0 μA.

Test [2] addresses T2, F508del-CFTR. The experiment in a line: Transepithelial electrical conductance (TEEC) in FRT cells expressing F508del-CFTR. More on the design: expressed in transfected cells; host or cells: FRT cells. The following applies: compounds tested at 5.0 μM, 24 hrs, table 2. Here is the method: Transepithelial Electrical Conductance (TEEC)
FRT cells expressing F508del-CFTR were plated on HTS Transwell-24 well permeable supports (Code 3379, Corning Life Sciences) at a density of 200,000 cells/well. After six days, cells were incubated for 24 hrs with test correctors, vehicle, or VX-809. Compounds were dissolved in both basolateral (800 μL) and apical (300 μL) culture medium. After treatment, the culture medium was removed and replaced on both sides with a saline solution containing (in mM): 130 NaCl, 2.7 KCl, 1.5 KH2PO4, 1 CaCl2), 0.5 MgCl2, 10 glucose, 10 Na-Hepes (pH 7.4). The basolateral and apical side received 800 μL and […], respectively. The 24-well tray with cells was placed on a block heater (SBH 130D, Stuart) to keep the temperature at 37° C. during the entire experiment. After 10 min, the basal transepithelial electrical resistance (TEER) across each layer of FRT cells was measured with a STX100C electrode pair connected to an EVOM2 voltohmeter (World Precision Instruments). To stimulate F508del-CFTR, each well received (apical side) 50 μL of saline solution containing 60 μM forskolin and 150 μM genistein (final concentrations: 20 μM forskolin, 50 μM genistein). Forskolin was also pipetted in the basolateral medium to obtain the 20 μM concentration. After 10 min TEER was measured again in each well. To block F508del-CFTR function, the inhibitor PPQ-102 was used at the final concentration of 30 μM. To achieve the desired concentration, 75 μL of the apical solution in each well was replaced with an equal volume of saline solution containing 20 μM forskolin, 50 μM genistein, and 60 μM PPQ-102. After further 10 min, the transepithelial electrical resistance was measured. All values of TEER were converted to transepithelial electrical conductance (TEEC) using the formula TEEC=1/TEER. The parameter to indicate activity of F508del-CFTR in each well (ATEEC) was calculated from the difference in TEEC measured after maximal stimulation of F508del-CFTR with forskolin and genistein and after block with PPQ-102.
Corrector activities obtained on selected compounds tested at 5.0 μM (expressed as ΔTEEC values) are illustrated in table 2, wherein +: ΔTEEC<2000 μS; ++: 2000 μS<ΔTEEC<3000 μS; […]: ΔTEEC>3000 μS.

The results in this text go back to patent US12492193B2, “Pyrazole derivatives for the treatment of cystic fibrosis” (Fondazione Istituto Italiano Di Tecnologia, priority 2017, dated 2025).

T1 sequence (P13569 with tags, fused parts or gaps DEL508-508): as above

With `Cc1nn(-c2cccc(C(=O)N(C)c3ccc4c(c3)OC(F)(F)O4)c2)c(C)c1Cl` [compound 009, 3-(4-Chloro-3,5-dimethyl-pyrazol-1-yl)-N-(2,2-difluoro-1,3-benzodioxol-5-yl)-N-methyl-benzamide], at mutant CFTR, the EC50 (commonly the concentration giving half of the maximal effect) was in the range of 1000 to 2000 nM. For the same compound, the “activity on HBE cells (ΔICFTR)” value at F508del-CFTR [1] is “++ (2.0 μA<ΔICFTR<3.0 μA)”. Further, the “Corrector activity (ΔTEEC)” value on F508del-CFTR [2] is given as “+ (ΔTEEC<2000 μS)”.
The like results for `CCOC(=O)c1c(Cl)c(C)nn1-c1cccc(C(=O)N(C)c2ccc3c(c2)OCO3)c1` [compound 075, Ethyl 2-[3-[1,3-benzodioxol-5-yl(methyl)carbamoyl]phenyl]-4-chloro-5-methyl-pyrazole-3-carboxylate] were, in that order, below 1000 nM, “+ (ΔICFTR<2.0 μA)” and “+ (ΔTEEC<2000 μS)”.
The like results for `Cc1nc2cc(Cl)c(N(C)C(=O)c3cccc(-n4nc(C)c(Cl)c4C)c3)cc2o1` [compound 080, 3-(4-Chloro-3,5-dimethyl-pyrazol-1-yl)-N-(5-chloro-2-methyl-1,3-benzoxazol-6-yl)-N-methyl-benzamide] were, in that order, below 1000 nM, “++ (2.0 μA<ΔICFTR<3.0 μA)” and “++ (2000 μS<ΔTEEC<3000 μS)”.
`Cc1nn(-c2cccc(C(=O)N(C)c3ccc4c(c3)OCO4)c2)c(C(=O)OC(C)(C)C)c1Cl` [compound 089, Tert-butyl 2-[3-[1,3-benzodioxol-5-yl(methyl)carbamoyl]phenyl]-4-chloro-5-methyl-pyrazole-3-carboxylate]: the 50% effective concentration (EC50) at mutant CFTR is below 1000 nM. In addition, the “activity on HBE cells (ΔICFTR)” value at F508del-CFTR [1] is “+++ (ΔICFTR>3.0 μA)”. Further, at F508del-CFTR [2], the “Corrector activity (ΔTEEC)” value is on record as “+ (ΔTEEC<2000 μS)”.
In the case of `Cc1c(Cl)c(C(F)(F)F)nn1-c1cccc(C(=O)N(C)c2ccc3c(c2)OCO3)c1` [compound 090, N-(1,3-Benzodioxol-5-yl)-3-[4-chloro-5-methyl-3-(trifluoromethyl)pyrazol-1-yl]-N-methyl-benzamide], the EC50 on mutant CFTR was below 1000 nM. For the same compound, at F508del-CFTR [1], the “activity on HBE cells (ΔICFTR)” value is “+++ (ΔICFTR>3.0 μA)”. The “Corrector activity (ΔTEEC)” value on F508del-CFTR [2] was “++ (2000 μS<ΔTEEC<3000 μS)”.
The like results for `Cc1c(Br)c(C(F)(F)F)nn1-c1cccc(C(=O)N(C)c2ccc3c(c2)OCO3)c1` [compound 098, N-(1,3-Benzodioxol-5-yl)-3-[4-bromo-5-methyl-3-(trifluoromethyl)pyrazol-1-yl]-N-methyl-benzamide] were, in that order, below 1000 nM, “+++ (ΔICFTR>3.0 μA)” and “++ (2000 μS<ΔTEEC<3000 μS)”.
In the case of `Cc1nn(-c2cccc(C(=O)N(C)c3ccc4c(c3)OCO4)c2)c(COc2ccc(C(=O)O)cc2)c1Cl` [compound 144, 4-[[2-[3-[1,3-Benzodioxol-5-yl(methyl)carbamoyl]phenyl]-4-chloro-5-methyl-pyrazol-3-yl]methoxy]benzoic acid], on mutant CFTR, the EC50 was below 1000 nM. In addition, the “activity on HBE cells (ΔICFTR)” value on F508del-CFTR [1] is “++ (2.0 μA<ΔICFTR<3.0 μA)”.
With `CCOC(=O)CCC(=O)N1CCC(Oc2cc(C(F)(F)F)nn2-c2cccc(C(=O)N(C)c3ccc4c(c3)OC(F)(F)O4)c2)CC1` [compound 260, Ethyl 4-[4-[2-[3-[(2,2-difluoro-1,3-benzodioxol-5-yl)-methyl-carbamoyl]phenyl]-5-(trifluoromethyl)pyrazol-3-yl]oxy-1-piperidyl]-4-oxo-butanoate], on mutant CFTR, the EC50 was below 1000 nM.
Same read-out and setting: the value for `Cc1nc2ncc(N(C)C(=O)c3cccc(-n4nc(C(F)(F)F)c(Cl)c4C)c3)cc2o1` [compound 261, 3-[4-Chloro-5-methyl-3-(trifluoromethyl)pyrazol-1-yl]-N-methyl-N-(2-methyloxazolo[4,5-b]pyridin-6-yl)benzamide] was 1000 to 2000 nM.
The same measure, in the same setting: the result for `CN(C(=O)c1cccc(-n2nc(C(F)(F)F)cc2OCc2ccc(C(=O)O)cc2)c1)c1ccc2c(c1)OCC2` [compound 262, 4-[[2-[3-[2,3-Dihydrobenzofuran-6-yl(methyl)carbamoyl]phenyl]-5-(trifluoromethyl)pyrazol-3-yl]oxymethyl]benzoic acid] reads below 1000 nM; that for `Cc1noc2cc(N(C)C(=O)c3cccc(-n4nc(C(F)(F)F)cc4OCc4ccc(C(=O)O)cc4)c3)ccc12` [compound 263, 4-[[2-[3-[Methyl-(3-methyl-1,2-benzoxazol-6-yl)carbamoyl]phenyl]-5-(trifluoromethyl)pyrazol-3-yl]oxymethyl]benzoic acid], above 2000 nM.
Still for that read-out and setting: the value for `CN(C(=O)c1cccc(-n2nc(C(F)(F)F)cc2OC2CCN(C(=O)CCC(=O)O)CC2)c1)c1ccc2c(c1)OC(F)(F)O2` [compound 264, 4-[4-[2-[3-[(2,2-Difluoro-1,3-benzodioxol-5-yl)-methyl-carbamoyl]phenyl]-5-(trifluoromethyl)pyrazol-3-yl]oxy-1-piperidyl]-4-oxo-butanoic acid] was 1000 to 2000 nM; that for `CN(C(=O)c1cccc(-n2nc(C(F)(F)F)cc2OCC2(C(=O)O)CC2)c1)c1ccc2c(c1)OC(F)(F)O2` [compound 265, 1-[[2-[3-[(2,2-Difluoro-1,3-benzodioxol-5-yl)-methyl-carbamoyl]phenyl]-5-(trifluoromethyl)pyrazol-3-yl]oxymethyl]cyclopropanecarboxylic acid] was above 2000 nM.
Regarding `CN(C(=O)c1cccc(-n2nc(C(F)(F)F)c(Cl)c2COc2ccc(C(=O)O)cc2)c1)c1cnc2c(c1)OCO2` [compound 267, 4-[[4-Chloro-2-[3-[[1,3]dioxolo[4,5-b]pyridin-6-yl (methyl)carbamoyl]phenyl]-5-(trifluoromethyl)pyrazol-3-yl]methoxy]benzoic acid], on mutant CFTR, the EC50 is below 1000 nM.
On the same count and under the same terms, the result for `CN(C(=O)c1cccc(-n2nc(C(F)F)c(C#N)c2COc2ccc(C(=O)O)cc2)c1)c1ccc2c(c1)OC(F)(F)O2` [compound 268, 4-[[4-cyano-2-[3-[(2,2-difluoro-1,3-benzodioxol-5-yl)-methyl-carbamoyl]phenyl]-5-(difluoromethyl)pyrazol-3-yl]methoxy]benzoic acid] reads below 1000 nM; that for `Cc1c(N(C)C(=O)c2cccc(-n3nc(C(F)(F)F)c(Cl)c3C)c2)ccc2c1OCO2` [compound 269, 3-[4-chloro-5-methyl-3-(trifluoromethyl)pyrazol-1-yl]-N-methyl-N-(4-methyl-1,3-benzodioxol-5-yl)benzamide], above 2000 nM.
